Assay results reported in patent US20250223301A1, “KINASE INHIBITORS, PREPARATION METHODS AND USES THEREOF” (InventisBio Co., Ltd., priority 2022, published 2025).
Like-named read-outs stand apart in the source and are kept apart here.

Columns and labels:
[1] = target: DGKz (Homo sapiens (Human), UniProt Q13574); assay: DGK ADP-Glo kinase assay (DGKz); assay type: biochemical; details: 5 nM DGKz, 15 uM ATP
Experimental: Luminescence was recorded using an Tecan SPARK microplate reader.

[2] = target: T1, DGKa (Homo sapiens (Human), UniProt P23743);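 also: biochemical DGK kinase assay, ADP-Glo luminescence from ADP made by phosphorylating 1,2-dioleoyl-sn-glycerol, 20 min compound preincubation then 40 min reaction at 25 °C, 1% DMSO control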
Experimental: (§1) The DGKa and DGKz kinase assays were performed using Promega ADP-Glo kit (Promega, Cat #V9102). One microliter test compound was added to a 384-well plate. Reactions were performed in a 5 uL volume by adding 2 uL mixture of DGK enzyme and ATP in assay buffer (50 mM MOPS pH 7.5, 100 mM NaCl, 10 mM MgCl2, 1 mM CaCl2, 0.0025% BSA, and 1 mM DTT). […] The enzyme solution was incubated with test compound at 25 ? for 20 min. […] The reaction was initiated by the addition of 2 uL of substrate solution (7 uM 1.2-dioleoyl-sn-glycerol, 5 mM octyl-b-D-glucopyranoside) in the 5 uL assay volume. The resulting mixture was incubated at 25° C. for 40 minutes. Next, 5 uL of ADP-Glo-reagent was added to the plate and incubated for 40 minutes. Then 10 uL of kinase detection reagent was added and incubated for 30 minutes. Luminescence was recorded using an Tecan SPARK microplate reader. 1% DMSO vehicle was used as control and no enzyme well was used as blank well.

[3] = Human microsomal clearance assay; assay type: in vitro ADME; details: pH 7.4; for CLint scaled at 1 μM: human, liver microsomes; for half-life at 1 μM: human liver microsomes 0.5 mg/mL, 1 uM compound
Experimental: This study aimed to assess the metabolic stability of a compound in human liver microsomes using a microsomal clearance assay.
A mixture containing 100 mM potassium phosphate, pH 7.4, 0.5 mg/mL liver microsomes, 2 mM NADPH, and 1 μM compound were prepared and added to 96-well plate. The plates were then incubated at 37 ? for different time points (0, 5, 15, 30, 45 minutes) and the reaction was stopped with acetonitrile solution containing an internal standard. The samples were then analyzed by LC/MS/MS to determine how much of the compound remained at each time point. The elimination rate constant and half-life were calculated from the data, and the in vitro intrinsic clearance (CLint) was determined as follows: […]

[4] = test system: Jurkat cells; assay: Jurkat IL-2 assay; assay type: cell-based; details: Homo sapiens, anti-CD3/CD28 stimulation overnight, IL-2 level
Summary of the method: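 Cells in RPMI-1640 with 10% FBS received compound solution (5 uM to 2.3 nM, 8 points, 3-fold dilution) for 60 minutes at 37° C. They were then stimulated overnight at 37° C. with anti-CD3/CD28 antibody. IL-2 in the supernatant was quantified by immunoassay kit and plotted against log compound concentration.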

[5] = test system: PBMC; assay: Human PBMC IL-2 assay; assay type: cell-based; details: anti-CD3/CD28 stimulation overnight, IL-2 level
Summary of the method: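 Healthy-donor frozen PBMC were thawed, rested 4 h at 37 °C and plated at ~200,000 cells/well. Cells were preincubated 60 min at 37 °C with compound solution (10 uM to 0.6 nM, 8 points, 4-fold, as added), then stimulated overnight with anti-CD3/CD28. Supernatant IL-2 was quantified by immunoassay kit and plotted against log compound concentration.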

[6] = test system: whole blood from male C57BL6 mice; assay: Mouse whole blood IFN-gamma assay; assay type: cell-based; details: anti-mouse CD3/CD28 0.6 ug/mL, 20 hours
Experimental: The whole blood from male C57BL6 mice (6-8 weeks old, Beijing Vital River Laboratory Animal Technology Co., Ltd.) was collected, pooled and dispensed at 200 uL per well in a 96-well plate. The blood was treated with compounds for one hour at 37° C. in a humidified 5% CO2 incubator. The blood was then stimulated with anti-mouse CD3 and anti-mouse CD28 antibody (BioLegend Cat #100340, #102116) at a final concentration of 0.6 ug/mL for 20 hours at 37° C. in a humidified 5% CO2 incubator. The blood was spun down, IFN-gamma in the supernatants was measured using ELISA kit (Excellbio Cat #EM002-96, #EM007-96) according the manufacture's instruction.

[7] = target: T1, DGKa; assay: biochemical
Experimental: as §1

T1 sequence (P23743 whole entry): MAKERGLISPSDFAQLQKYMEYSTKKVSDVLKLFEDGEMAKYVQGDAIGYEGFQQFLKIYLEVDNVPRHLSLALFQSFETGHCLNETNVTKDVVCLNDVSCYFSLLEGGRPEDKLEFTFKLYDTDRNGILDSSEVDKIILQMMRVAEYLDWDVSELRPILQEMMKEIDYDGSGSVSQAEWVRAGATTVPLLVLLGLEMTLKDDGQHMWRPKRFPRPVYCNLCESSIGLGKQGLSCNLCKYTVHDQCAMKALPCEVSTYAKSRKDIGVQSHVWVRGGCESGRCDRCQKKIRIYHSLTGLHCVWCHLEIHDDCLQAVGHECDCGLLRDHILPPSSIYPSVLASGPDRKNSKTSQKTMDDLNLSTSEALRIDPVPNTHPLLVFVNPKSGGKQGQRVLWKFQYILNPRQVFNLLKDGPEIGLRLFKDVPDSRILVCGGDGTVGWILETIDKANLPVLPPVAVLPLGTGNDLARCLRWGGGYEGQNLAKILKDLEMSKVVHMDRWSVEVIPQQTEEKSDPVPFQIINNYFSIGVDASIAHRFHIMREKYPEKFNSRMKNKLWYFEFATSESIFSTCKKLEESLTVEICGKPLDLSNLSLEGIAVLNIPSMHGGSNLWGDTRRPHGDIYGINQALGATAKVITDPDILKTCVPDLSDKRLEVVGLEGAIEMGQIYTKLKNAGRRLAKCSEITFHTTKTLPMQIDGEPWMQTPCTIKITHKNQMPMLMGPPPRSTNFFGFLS
Sequence of DGKz (Q13574 whole entry): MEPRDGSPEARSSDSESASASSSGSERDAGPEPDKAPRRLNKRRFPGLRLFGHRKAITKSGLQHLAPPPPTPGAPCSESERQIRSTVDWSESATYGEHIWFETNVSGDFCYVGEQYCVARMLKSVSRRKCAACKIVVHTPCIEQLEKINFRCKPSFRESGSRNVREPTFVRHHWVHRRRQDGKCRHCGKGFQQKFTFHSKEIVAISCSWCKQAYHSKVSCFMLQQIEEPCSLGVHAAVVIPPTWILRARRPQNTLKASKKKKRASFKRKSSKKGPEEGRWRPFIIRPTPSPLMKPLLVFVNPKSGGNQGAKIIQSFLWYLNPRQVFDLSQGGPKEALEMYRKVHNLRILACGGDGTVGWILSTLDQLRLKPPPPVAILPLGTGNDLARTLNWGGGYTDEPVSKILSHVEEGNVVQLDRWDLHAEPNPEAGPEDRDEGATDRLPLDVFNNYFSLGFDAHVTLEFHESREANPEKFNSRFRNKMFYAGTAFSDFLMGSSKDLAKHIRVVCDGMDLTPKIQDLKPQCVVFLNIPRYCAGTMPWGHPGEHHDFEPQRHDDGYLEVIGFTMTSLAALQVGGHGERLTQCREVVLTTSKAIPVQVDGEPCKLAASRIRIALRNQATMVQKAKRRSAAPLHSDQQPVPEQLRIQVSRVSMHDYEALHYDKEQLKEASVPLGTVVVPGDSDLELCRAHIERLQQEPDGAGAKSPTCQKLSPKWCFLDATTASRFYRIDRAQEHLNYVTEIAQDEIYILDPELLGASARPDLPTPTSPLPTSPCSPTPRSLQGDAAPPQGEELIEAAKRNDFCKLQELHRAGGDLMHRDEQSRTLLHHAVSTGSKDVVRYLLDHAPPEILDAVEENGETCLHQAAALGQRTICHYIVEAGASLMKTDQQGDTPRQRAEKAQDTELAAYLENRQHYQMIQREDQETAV

SMILES | IC50 [1] [nM] | IC50 [2] [nM] | further results
CC[C@H]1CN(C(CO)c2ccc(S(F)(F)(F)(F)F)cc2)[C@H](CC)CN1c1nc(=O)n(C)c2ccc(C#N)nc12 (stereo partly shown) [Compound 77] | 81 | 32 | –
CC[C@@H]1CN(c2nc3nncn3c3ccc(C#N)nc23)[C@@H](CC)CN1C(=O)Nc1ccc(C(F)(F)F)cc1 [Compound 95] | 303 | 58 | –
CC[C@H]1CN(C(COC)c2ccc(S(F)(F)(F)(F)F)cc2)[C@H](CC)CN1c1nc(=O)n(C)c2ccc(C#N)nc12 (stereo partly shown) [Compound 78] | 41 | 19 | –
CC[C@H]1CN([C@H](CC)c2ccc(OC)cc2F)[C@H](CC)CN1c1nc2nncn2c2ccc(C#N)nc12 (stereo in doubt) [Compound 116] | 347 | 14 | –
CC[C@H]1CN([C@@H](c2ccc(S(F)(F)(F)(F)F)cc2)c2nc(C3CC3)cs2)[C@H](CC)CN1c1nc(=O)n(C)c2ccc(C#N)nc12 [Compound 99] | 22 | 4 | –
CC[C@@H]1CN2c3c(c(=O)n(C)c4ccc(C#N)nc34)OC[C@@H]2CN1[C@@H](CC)c1ccc(S(F)(F)(F)(F)F)cc1 (stereo in doubt) [Compound 151] | – | – | EC50 [4]: 32 nM; CLint scaled at 1 μM [3]: 4.1 mL/min/kg; half-life at 1 μM [3]: 7.13 h; EC50 [5]: 82 nM
Cn1c(=O)nc(N2CCCc3c(C#CC4CC4)cccc32)c2nc(C#N)ccc21 [Compound 42] | 311 | 3 | –
CC[C@@H]1CN2c3c(c4nncn4c4ccc(C#N)nc34)OC[C@@H]2CN1[C@@H](CC)c1ccc(C(F)(F)F)cc1 [Compound 334] | – | – | EC50 [6]: 241 nM; EC50 [4]: 26 nM; EC50 [5]: 31 nM
Cn1c(=O)c(C(N)=O)c(N2CCC3(CCN(c4ccc(OC(F)(F)F)cc4)C3)CC2)c2nc(C#N)ccc21 [Compound 6] | 775 | 212 | EC50 [5]: 1800 nM
CC[C@H]1CN([C@H]2CCCCc3cc(C(F)(F)F)ccc32)[C@H](CC)CN1c1nc2nncn2c2ccc(C#N)nc12 [Compound 113] | 161 | 44 | –
CC[C@H]1CN(C(c2ccc(S(F)(F)(F)(F)F)cc2)c2nc(C3CC3)no2)[C@H](CC)CN1c1nc(=O)n(C)c2ccc(C#N)nc12 (stereo partly shown) [Compound 64] | 55 | 10 | –
Cc1ccccc1-n1cc(C2CCN(c3nc(=O)n(C)c4ccc(C#N)nc34)CC2)cn1 [Compound 12] | > 10000 | 6600 | –
CC[C@H]1CN([C@@H](CC)c2ccc(OC)cc2F)[C@H](CC)CN1c1nc2nncn2c2ccc(C#N)nc12 (stereo in doubt) [Compound 115] | 8 | 3 | –
Cc1ccc2oc(C3CCN(c4nc(=O)n(C)c5ccc6nncn6c45)CC3)nc2c1 [Compound 22] | > 10000 | 5 | –
Cn1c(=O)nc(N2CCC3(CC2)COC(c2ccc(OC(F)(F)F)cc2)=N3)c2nc(C#N)ccc21 [Compound 36] | – | – | CLint scaled at 1 μM [3]: 2.7 mL/min/kg; half-life at 1 μM [3]: 10.9 h
CC[C@@H]1CN2c3c(c(=O)n(C)c4ccc(C#N)nc34)CC[C@@H]2CN1[C@H](CC)c1ccc(C(F)(F)F)cc1 [Compound 332] | – | – | EC50 [4]: 130 nM; CLint scaled at 1 μM [3]: 6.9 mL/min/kg; half-life at 1 μM [3]: 4.23 h; EC50 [5]: 64 nM
[2H]C([2H])([2H])n1c(=O)c2c(c3nc(C#N)ccc31)N1C[C@@H](CC)N([C@@H](CC)c3ccc(C(F)(F)F)cc3)C[C@H]1CO2 (stereo in doubt) [Compound 251] | – | – | EC50 [4]: 51 nM; CLint scaled at 1 μM [3]: 8.6 mL/min/kg; half-life at 1 μM [3]: 3.38 h; EC50 [5]: 50 nM
CC[C@@H]1CN2c3c(c(=O)n(C)c4ccc(C#N)nc34)OC[C@@H]2CN1[C@@H](CC)c1ccc(F)c(Cl)c1 (stereo in doubt) [Compound 197] | – | – | EC50 [6]: 312 nM; EC50 [4]: 39 nM; EC50 [5]: 78 nM
CCC(c1ccc(C23CC(C2)C3)nc1)N1C[C@H](CC)N(c2nc3nncn3c3ccc(C#N)nc23)C[C@H]1CC (stereo partly shown) [Compound 104] | 41 | 18 | –
Cn1c(=O)c(C(N)=O)c(N2CCC3(CN(c4ccc(OC(F)(F)F)cc4)C3)C2)c2nc(C#N)ccc21 [Compound 15] | > 10000 | 19 | –
CC[C@H]1CN([C@H](c2ccc(S(F)(F)(F)(F)F)cc2)c2nc(C3CC3)cs2)[C@H](CC)CN1c1nc(=O)n(C)c2ccc(C#N)nc12 [Compound 98] | 40 | 10 | –
Cn1c(=O)nc(N2CCC(Oc3ccc(OC(F)(F)F)cc3)CC2)c2nc(C#N)ccc21 [Compound 5] | 126 | 427 | EC50 [5]: 728 nM
Cc1ccc2oc(C3CCN(c4nc(=O)n(C)c5ccc(C#N)nc45)CC3)nc2c1 [Compound 20] | 1840 | 1160 | –

Now from value to compound, other results behind:

IC50 [1] [nM] | IC50 [2] [nM] | SMILES | further results
33 | 13 | CC[C@@H]1CN(c2nc(=O)n(C)c3ccc(C#N)nc23)[C@@H](C)CN1[C@@H](c1ccc(F)cc1)c1ccc(SC(F)(F)F)cn1 [Compound 72] | –
24 | 20 | Cn1c(=O)nc(N2CCC3(CC2)CC(c2ccc(OC(F)(F)F)cc2)=NO3)c2nc(C#N)ccc21 [Compound 31] | CLint scaled at 1 μM [3]: 5.1 mL/min/kg; half-life at 1 μM [3]: 5.7 h
21 | 3 | CC[C@H]1CN([C@@H](CC)c2nc(C3CC3)no2)[C@H](CC)CN1c1nc2nncn2c2ccc(C#N)nc12 [Compound 119] | –
117 | 6 | CC[C@H]1CN([C@H](CC)c2ccc(C(F)(F)F)cc2)[C@H](CC)CN1c1nc2nccn2c2ccc(C#N)nc12 [Compound 110] | –
224 | 16 | CC[C@H]1CN([C@H](CC)c2ccc(C(F)(F)F)cc2)[C@H](CC)CN1c1nc2nncn2c2ccc(C#N)nc12 [Compound 35] | –
50 | – | CC[C@H]1CN([C@@H](CC)c2ccc(S(F)(F)(F)(F)F)cc2)[C@H](CC)CN1c1nc(=O)n(C)c2ccc(C#N)nc12 [Compound 28] | IC50 [7]: 12 nM; CLint scaled at 1 μM [3]: 7.7 mL/min/kg; half-life at 1 μM [3]: 3.75 h
248 | 29 | N#Cc1ccc2c(n1)c(N1CCC3(CC1)CC(c1ccc(SC(F)(F)F)cc1)=NO3)nc1nncn12 [Compound 54] | –
4 | 30 | CC[C@H]1CN([C@@H]2CCCCc3cc(C(F)(F)F)ccc32)[C@H](CC)CN1c1nc2nncn2c2ccc(C#N)nc12 [Compound 114] | –
242 | 26 | CC[C@@H]1CN2c3c(c(=O)n(C)c4ccc(C#N)nc34)OC[C@H]2CN1[C@H](CC)c1ccc(C(F)(F)F)cc1 [Compound 108] | –
547 | 579 | Cn1c(=O)nc(N2CCC3(CCN(c4ccc(OC(F)(F)F)cc4)C3)CC2)c2nc(C#N)ccc21 [Compound 8] | –
136 | 9 | CC[C@@H]1CN2c3c(c(=O)n(C)c4ccc(C#N)nc34)OC[C@H]2CN1[C@@H](CC)c1ccc(C(F)(F)F)cc1 [Compound 107] | –
71 | 6 | CC[C@H]1CN([C@@H](CC)c2ccc(C(F)(F)F)cc2)[C@H](CC)CN1c1nc2nccn2c2ccc(C#N)nc12 [Compound 109] | –
45 | – | CC[C@H]1CN([C@@H]2CCCCc3cc(C(F)(F)F)ccc32)[C@H](CC)CN1c1nc(=O)n(C)c2ccc(C#N)nc12 [Compound 45] | IC50 [7]: 245 nM; EC50 [4]: 858 nM
324 | 5 | CN(c1cccc(C#CC2CC2)c1)c1nc(=O)n(C)c2ccc(C#N)nc12 [Compound 46] | –
352 | 10 | CC[C@H]1CN([C@H](CC)c2nc(C3CC3)no2)[C@H](CC)CN1c1nc2nncn2c2ccc(C#N)nc12 [Compound 120] | –
36 | 12 | Cn1c(=O)nc(N2CCC3(CC2)CC(c2cccc(C(F)(F)F)c2)=NO3)c2nc(C#N)ccc21 [Compound 47] | –
185 | 85 | N#Cc1ccc2c(n1)c(N1CCC3(CC1)CC(c1ccc(C(F)(F)F)cc1)=NO3)nc1nncn12 [Compound 53] | –
475 | 17 | Cn1c(=O)nc(N2CCC3(CC2)COC(c2ccc(OC(F)(F)F)cc2)=N3)c2nc(Cl)ccc21 [Compound 37] | –
